Reference: patent US4563470A, “N-Substituted α,ωamino and imino-sulfonic acid salts and their application as cationic vectors of high cellular penetration” (Les Laboratories Meram, priority 1982, dated 1986)
Where two headings read alike, the source gives them in different places.

What was measured:
Solubility = type: physicochemical; conditions: for solubility in alcohol / ethanol: alcohol or ethanol
in vivo = conditions: mouse, in vivo; for selectivity ratio: B/P ratio (oral LD50 / i.p. LD50)
Protocol: (§1) The study is carried out with Swiss I.O.P.S. mice, in lots of 20 animals of both sexes.

[1] = Acute toxicity LD50 oral vs i.p. and B/P ratio, sodium salts (species not restated); type: in vivo; conditions: for selectivity ratio / LD50: in vivo
Text: While the ratio for the reference salt, sodium chloride, is greater than 205.4/61.2=3.36, it is, for the imino compounds of Examples 1 and 5 7.0/3.0=2.33 and 6.7/4.4=1.52, respectively, and, for the amino compounds of Examples 2 and 6 (while not strictly determined but without doubt greater than 1), respectively greater than 20.1/20.1=1 and greater than […].

[2] = Test of Frances et al. (ED50 rolling, trembling)
Swiss I.O.P.S. mice = assay: in vivo; conditions: Swiss I.O.P.S. mouse; for LD50 by gastric tubage (B): oral
Protocol: as §1

[3] = Acute toxicity LD50 oral vs i.p. and B/P ratio, rat; type: in vivo; conditions: in vivo, Sprague-Dawley I.O.P.S. rat
Text: (§2) It has been determined that this discovery is not appropriate to a particular animal, by making the same observation for the Sprague-Dawley I.O.P.S. rat where the B/P ratio for magnesium chloride is greater than […]. For the respective compounds of Examples 13 and 14, the ratio is reduced in a most significant manner (p<0.001), to 3.3/2.2=1.5 and […].

[4] = tested on: Sprague-Dawley I.O.P.S. rats; assay: Oral magnesium recharge in magnesium-deficient rats; type: in vivo, rat (Sprague-Dawley I.O.P.S.); conditions: for onset of correction of erythrocyte magnesium: 40, 20 or 5 mg magnesium/kg/day; for aggression of deficient rats with respect to mice (muricide activity): magnesium-deficient rats (25 ppm Mg); for erythrocyte magnesium level (hypercorrection): third day, deficient animals 40 mg, controls 60 mg
[5] = Therapeutic use in a patient with latent tetany by magnesium deficiency; type: in vivo, human
Protocol: was attacked by latent tetany by magnesium deficiency. They were treated for two years by various forms of magnesotherapy: 3 g magnesium lactate per day or three drinkable ampoules of magnesium pyroglutamate (standardised 127 mg Mg^2+ per ampoule) per day, without succeeding in correcting an erythrocyte magnesium level varying from 43 to 46 mg/l. A prescription of 3 gelatine-coated pills of the compound of Example 13 led to a regression of […] (headache, asthenia, cramp) and the increase, to 48 mg/l in the first month and to 53 mg/l in the second month, of the erythrocyte magnesium level. Ultimately, it was nevertheless observed that each interruption in administration of the product was followed, in the subsequent chemical and biological monthly control, by a relapse (comprising the symptomotology and reduction of the erythrocyte magnesium level to about 45 mg/l).

insulin = assay: Potentiation of the hypoglycemic activity of insulin (test of Macallum et al.); type: in vivo, rabbit; conditions: for potentiation of the hypoglycemic activity of insulin, intravenous / potentiation of the hypoglycemic activity of insulin, oral: intravenous; for potentiation of the hypoglycemic activity of insulin, oral: non-convulsant dose of insulin; for oral activity after the metabolic and neurologic tests: summary of insulin potentiation and kainic acid tests
Protocol: (§3) By way of example, the compounds are tested, on one hand by the test of Macallum et al., Can.

[6] = Antagonism of neurotoxic/convulsant activity of kainic acid, wet dog shaking (test of Fariello et al.); type: in vivo, rat; conditions: per os
Protocol: as §3

[7] = kainic acid administered systemically to the rat; Fariello et al. 1980; cited from earlier work
[8] = tested on: Sprague-Dawley I.O.P.S. rat; assay: Acute toxicity LD50 oral vs i.p. and B/P ratio, rat; type: in vivo
Text: as §2

[9] = ip, LD50 i.p. (P), Swiss I.O.P.S. mouse
[10] = po, LD50 by gastric tubage (B), Swiss I.O.P.S. mouse
[11] = oral, read-out: LD50 by gastric tubage (B)
[12] = ip, i.p., read-out: LD50 i.p. (P)
[13] = one patient, 3 gelatine-coated pills (750 mg, 32 mg Mg ion daily)

Molecule: Cc1ncc(CO)c(CNCCS(=O)(=O)[O-])c1O.[Li+]
- solubility in acetone (Solubility): Insoluble
- solubility in water (Solubility): Soluble

Molecule: Cc1ncc(CO)c(CNCCS(=O)(=O)[O-])c1O.[K+]
- selectivity ratio (in vivo; Swiss I.O.P.S. mouse): 1.2
- LD50 (in vivo; [9]): 13000 µmol/kg
- LD50 (in vivo; [10]): 15700 µmol/kg
- solubility in acetone (Solubility): Insoluble
- solubility in water (Solubility): Soluble

Molecule: Cc1ncc(CO)c(CNCCCS(=O)(=O)[O-])c1O.[Na+]
- selectivity ratio [1]: > 1.43
- LD50 ([1]; ip, read-out: LD50 i.p. (P)): 13000 µmol/kg
- LD50 [1, 11]: > 19200 µmol/kg
- solubility in acetone (Solubility; acetone): Insoluble
- solubility in water (Solubility; water): Soluble

Molecule: Cc1ncc(CO)c(CNCCCS(=O)(=O)[O-])c1O.[K+]
- selectivity ratio (in vivo; Swiss I.O.P.S. mouse): 1.19
- LD50 (in vivo; [9]): 14200 µmol/kg
- LD50 (in vivo; [10]): 17000 µmol/kg
- solubility in acetone (Solubility): Insoluble
- solubility in water (Solubility): Soluble
- ED50 ([2]; read-out: ED50 rolling): 270 µmol/kg
- ED50 ([2]; read-out: ED50 trembling): 270 µmol/kg
- activity relative to taurine ([2]; test of Frances et al.): 17 times

Molecule: Cc1ncc(CO)c(CNCCCS(=O)(=O)[O-])c1O.[Li+]
- solubility in acetone (Solubility): insoluble
- solubility in water (Solubility): soluble

Molecule: [Ca+2].[Cl-].[Cl-] [CaCl2, reference compound]
- B/P ratio (oral LD50 / i.p. LD50) (Swiss I.O.P.S. mice): > 9.2
- LD50 by gastric tubage (B) (Swiss I.O.P.S. mice): greater than 36.5 mmol/kg

Molecule: Cc1ncc(CO)c(C=NCCS(=O)(=O)O)c1O [Example 1, Sodium β-(3-hydroxy-5-hydroxymethyl-2-methyl-4-pyridylmethyleneimino)ethanesulfonate]
- selectivity ratio [1]: 2.33
- LD50 ([1]; ip, read-out: LD50 i.p. (P)): 3000 µmol/kg
- LD50 [1, 11]: 7000 µmol/kg
- solubility in alcohol / ethanol (Solubility): Insoluble

Molecule: Cc1ncc(CO)c(CNCCS(=O)(=O)[O-])c1O.[Na+] [Example 2, Sodium β-(3-hydroxy-5-hydroxymethyl-2-methyl-4-pyridylmethylamino)ethanesulfonate]
- selectivity ratio [1]: > 1
- LD50 ([1]; ip, read-out: LD50 i.p. (P)): 20100 µmol/kg
- LD50 [1, 11]: > 20100 µmol/kg
- solubility in acetone (Solubility; acetone): Insoluble
- solubility in methanol (Solubility): Poorly soluble
- solubility in water (Solubility; water): Soluble

Molecule: Cc1ncc(CO)c(C=NCCS(=O)(=O)O)c1O [Example 3, Potassium β-(3-hydroxy-5-hydroxymethyl-2-methyl-4-pyridylmethyleneimino)ethanesulfonate]
- B/P ratio (oral LD50 / i.p. LD50) (Swiss I.O.P.S. mice): 1.79
- LD50 by gastric tubage (B) (Swiss I.O.P.S. mice): 7.0 mmol/kg

Molecule: Cc1ncc(CO)c(C=NCCCS(=O)(=O)O)c1O [Example 5, Sodium γ-(3-hydroxy-5-hydroxymethyl-2-methyl-4-pyridylmethyleneimino)propanesulfonate]
- selectivity ratio [1]: 1.52
- LD50 ([1]; ip, read-out: LD50 i.p. (P)): 4400 µmol/kg
- LD50 [1, 11]: 6700 µmol/kg
- solubility in acetone (Solubility; acetone): Insoluble
- solubility in alcohol / ethanol (Solubility): Insoluble
- solubility in water (Solubility; water): Soluble

Molecule: Cc1ncc(CO)c(C=NCCCS(=O)(=O)O)c1O [Example 7, Potassium γ-(3-hydroxy-5-hydroxymethyl-2-methyl-4-pyridylmethyleneimino)propanesulfonate]
- B/P ratio (oral LD50 / i.p. LD50) (Swiss I.O.P.S. mice): 1.75
- LD50 by gastric tubage (B) (Swiss I.O.P.S. mice): 7.0 mmol/kg
- solubility in acetone (Solubility; acetone): Insoluble
- solubility in water (Solubility; water): Soluble

Molecule: Cc1ncc(CO)c(C=NCCS(=O)(=O)O)c1O [Example 9, Lithium β-(3-hydroxy-5-hydroxymethyl-2-methyl-4-pyridylmethyleneimino)ethanesulfonate]
- solubility in acetone (Solubility; acetone): Insoluble
- solubility in water (Solubility; water): Soluble

Molecule: Cc1ncc(CO)c(C=NCCS(=O)(=O)O)c1O [Example 11, Calcium β-(3-hydroxy-5-hydroxymethyl-2-methyl-4-pyridylmethyleneimino)ethanesulfonate]
- LD50 (in vivo; [9]): 2600 µmol/kg
- LD50 (in vivo; [10]): 7700 µmol/kg
- B/P ratio (oral LD50 / i.p. LD50) (Swiss I.O.P.S. mice): 2.96

Molecule: Cc1ncc(CO)c(C=NCCCS(=O)(=O)O)c1O [Example 12, Calcium γ-(3-hydroxy-5-hydroxymethyl-2-methyl-4-pyridylmethyleneimino)propanesulfonate]
- LD50 (in vivo; [9]): 2400 µmol/kg
- LD50 (in vivo; [10]): 8100 µmol/kg
- B/P ratio (oral LD50 / i.p. LD50) (Swiss I.O.P.S. mice): 3.3
- solubility in acetone (Solubility; acetone): Insoluble
- solubility in methanol (Solubility): Soluble
- solubility in water (Solubility; water): Soluble

Molecule: Cc1ncc(CO)c(C=NCCS(=O)(=O)O)c1O [Example 13, Magnesium β-(3-hydroxy-5-hydroxymethyl-2-methyl-4-pyridylmethyleneimino)ethanesulfonate]
- LD50 (in vivo; ip): 2800 µmol/kg
- LD50 (in vivo; po): 3300 µmol/kg
- B/P ratio (oral LD50 / i.p. LD50) (Swiss I.O.P.S. mice): 1.17
- LD50 [3, 12]: 2200 µmol/kg
- selectivity ratio [3]: 1.5
- LD50 [3, 11]: 3300 µmol/kg
- onset of hypercorrection of erythrocyte magnesium [4]: third day
- onset of correction of erythrocyte magnesium [4]: first day
- aggression of deficient rats with respect to mice (muricide activity) [4]: reduced aggression
- erythrocyte magnesium level (hypercorrection) [4]: 79.2 mg
- activity in controlling magnesium deficiency versus conventional magnesium salts ([5]; 750 mg daily (32 mg Mg ion) vs conventional magnesium salts at doses 10 times larger): more active
- symptoms (headache, asthenia, cramp) ([5]; one patient, 3 gelatine-coated pills): regression
- erythrocyte magnesium level, first month [5, 13]: 48 mg/L
- erythrocyte magnesium level, second month [5, 13]: 53 mg/L
- erythrocyte magnesium level after interruption of administration ([5]; one patient, relapse at subsequent monthly control): about 45 mg/l
- solubility in methanol (Solubility): Insoluble

Molecule: Cc1ncc(CO)c(C=NCCCS(=O)(=O)O)c1O [Example 14, Magnesium γ-(3-hydroxy-5-hydroxymethyl-2-methyl-4-pyridylmethyleneimino)propanesulfonate]
- LD50 (in vivo; ip): 3300 µmol/kg
- LD50 (in vivo; po): 4100 µmol/kg
- B/P ratio (oral LD50 / i.p. LD50) (Swiss I.O.P.S. mice): 1.24
- LD50 [3, 12]: 2400 µmol/kg
- selectivity ratio [3]: 1.66
- LD50 [3, 11]: 4200 µmol/kg
- onset of hypercorrection of erythrocyte magnesium [4]: third day
- onset of correction of erythrocyte magnesium [4]: first day
- aggression of deficient rats with respect to mice (muricide activity) [4]: reduced aggression
- erythrocyte magnesium level (hypercorrection) [4]: 75.8 mg
- solubility in acetone (Solubility; acetone): Insoluble
- solubility in methanol (Solubility): Insoluble
- solubility in water (Solubility; water): Soluble

Molecule: NCCS(=O)(=O)O [Taurine, 2-aminoethanesulfonic acid]
- potentiation of the hypoglycemic activity of insulin, intravenous (insulin): active intravenously
- potentiation of the hypoglycemic activity of insulin, oral (insulin): not orally active
- oral activity after the metabolic and neurologic tests (insulin): inactive
- reduction of the neurotoxic effect of kainic acid (wet dog shaking) [6]: no significant reduction
- ED50 ([2]; read-out: ED50 rolling): 4670 µmol/kg
- ED50 ([2]; read-out: ED50 trembling): 4340 µmol/kg

Molecule: NCCCS(=O)(=O)O [homotaurine, 3-aminopropanesulfonic acid]
- potentiation of the hypoglycemic activity of insulin, intravenous (insulin): active intravenously
- potentiation of the hypoglycemic activity of insulin, oral (insulin): not orally active
- oral activity after the metabolic and neurologic tests (insulin): inactive
- reduction of the neurotoxic effect of kainic acid (wet dog shaking) [6]: no significant reduction
- antagonism of neurotoxic or convulsant activity of kainic acid [7]: antagonises the neurotoxic or convulsant activity of kainic acid

Molecule: Cc1ncc(CO)c(C=NCCCS(=O)(=O)O)c1O [lithium γ-(3-hydroxy-5-hydroxymethyl-2-methyl-4-pyridylmethy] [lithium γ-(3-hydroxy-5-hydroxymethyl-2-methyl-4-pyridylmethyleneimino)propanesulfonate]
- solubility in acetone (Solubility; acetone): insoluble
- solubility in water (Solubility; water): soluble

Molecule: [Cl-].[Cl-].[Mg+2] [magnesium chloride, reference compound]
- B/P ratio (oral LD50 / i.p. LD50) (Swiss I.O.P.S. mice): 2.04
- LD50 by gastric tubage (B) (Swiss I.O.P.S. mice): 19.2 mmol/kg
- B/P ratio (oral LD50 / i.p. LD50) [8]: > 8.99
- LD50 by gastric tubage (B) ([8]; oral): greater than 39.3 mmol/kg

Molecule: [Cl-].[K+] [potassium chloride, reference compound]
- B/P ratio (oral LD50 / i.p. LD50) (Swiss I.O.P.S. mice): > 7.25
- LD50 by gastric tubage (B) (Swiss I.O.P.S. mice): greater than 107.3 mmol/kg

Molecule: [Cl-].[Na+] [sodium chloride, reference compound]
- B/P ratio (oral LD50 / i.p. LD50) [1]: > 3.36
- LD50 by gastric tubage (B) ([1]; oral): greater than 205.4 mmol/kg

Molecule: vitamin B6
- oral activity after the metabolic and neurologic tests (insulin): inactive
